Test system: Hemophilia A mice
Assay: Immunogenicity of simple complexes, subcutaneous: total antibody titers (ELISA) and inhibitory titers (Bethesda Units)
Details: mouse, in vivo, sc
Description: To illustrate this example, simple complexes were prepared with phosphoserine, phosphocholine or phaphatidic acid. Immunogenicity was tested by subcutaneous administration of the complexes in Hemophilia A mice.

## phosphatidic acid
  effect on immunogenicity (total antibody titers and inhibitory titers) versus rFVIII: not

From patent publication US7351688B2, “Compositions and methods for less immunogenic protein formulations” (The Research Foundation of State University of New York, priority 2003, dated 2008)
